Data: PubChem BioAssay (NCI)
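Briefly, cells in 96-well plates were exposed to five compound concentrations for 48 h, and endpoints were estimated by linear interpolation. GI50: concentration for 50% inhibition of growth. TGI is the concentration that stops growth completely.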

How the values were obtained:
Assay in all cases: growth of human tumour cells (NCI), 48 h
786-0 renal = test system: 786-0 renal
A498 renal = test system: A498 renal
A549 NSCLC = test system: A549 NSCLC
ACHN renal = test system: ACHN renal
CAKI-1 renal = test system: CAKI-1 renal
CCRF-CEM leukemia = test system: CCRF-CEM leukemia
COLO 205 colon = test system: COLO 205 colon
DU-145 prostate = test system: DU-145 prostate
EKVX NSCLC = test system: EKVX NSCLC
HCC-2998 colon = test system: HCC-2998 colon
HCT-116 colon = test system: HCT-116 colon
HCT-15 colon = test system: HCT-15 colon
HL-60(TB) leukemia = test system: HL-60(TB) leukemia
HOP-62 NSCLC = test system: HOP-62 NSCLC
HOP-92 NSCLC = test system: HOP-92 NSCLC
HS 578T breast = test system: HS 578T breast
HT29 colon = test system: HT29 colon
K-562 leukemia = test system: K-562 leukemia
KM12 colon = test system: KM12 colon
LOX IMVI melanoma = test system: LOX IMVI melanoma
M14 melanoma = test system: M14 melanoma
MALME-3M melanoma = test system: MALME-3M melanoma
MCF7 breast = test system: MCF7 breast
MDA-MB-231 breast = test system: MDA-MB-231 breast
MDA-MB-435 = test system: MDA-MB-435
MDA-N = test system: MDA-N
MOLT-4 leukemia = test system: MOLT-4 leukemia
NCI-H226 lung = test system: NCI-H226 lung
NCI-H23 lung = test system: NCI-H23 lung
NCI-H460 lung = test system: NCI-H460 lung
NCI/ADR-RES ovarian = test system: NCI/ADR-RES ovarian
OVCAR-3 ovarian = test system: OVCAR-3 ovarian
OVCAR-5 ovarian = test system: OVCAR-5 ovarian
OVCAR-8 ovarian = test system: OVCAR-8 ovarian
PC-3 prostate = test system: PC-3 prostate
RPMI-8226 leukemia = test system: RPMI-8226 leukemia
RXF 393 renal = test system: RXF 393 renal
SF-268 CNS = test system: SF-268 CNS
SF-295 CNS = test system: SF-295 CNS
SF-539 CNS = test system: SF-539 CNS
SK-MEL-28 melanoma = test system: SK-MEL-28 melanoma
SK-MEL-5 melanoma = test system: SK-MEL-5 melanoma
SK-OV-3 ovarian = test system: SK-OV-3 ovarian
SN12C renal = test system: SN12C renal
SNB-19 CNS = test system: SNB-19 CNS
SNB-75 CNS = test system: SNB-75 CNS
SR leukemia = test system: SR leukemia
SW-620 colon = test system: SW-620 colon
T-47D breast = test system: T-47D breast
TK-10 renal = test system: TK-10 renal
U251 CNS = test system: U251 CNS
UACC-257 melanoma = test system: UACC-257 melanoma
UACC-62 melanoma = test system: UACC-62 melanoma
BT-549 breast = test system: BT-549 breast
IGROV1 ovarian = test system: IGROV1 ovarian
NCI-H522 lung = test system: NCI-H522 lung
OVCAR-4 ovarian = test system: OVCAR-4 ovarian
SK-MEL-2 melanoma = test system: SK-MEL-2 melanoma
UO-31 renal = test system: UO-31 renal

CCOC(=S)SSSC(=S)OCC
TGI (786-0 renal): 28.5 µM | TGI (A498 renal): > 100 µM | TGI (A549 NSCLC): > 100 µM | TGI (ACHN renal): 41.9 µM | TGI (CAKI-1 renal): > 100 µM | TGI (CCRF-CEM leukemia): > 100 µM | TGI (COLO 205 colon): > 100 µM | TGI (DU-145 prostate): > 100 µM | TGI (EKVX NSCLC): > 100 µM | TGI (HCC-2998 colon): > 100 µM | TGI (HCT-116 colon): 53.7 µM | TGI (HCT-15 colon): 46.8 µM | TGI (HL-60(TB) leukemia): > 100 µM | TGI (HOP-62 NSCLC): > 100 µM | TGI (HOP-92 NSCLC): > 100 µM | TGI (HS 578T breast): > 100 µM | TGI (HT29 colon): > 100 µM | TGI (K-562 leukemia): > 100 µM | TGI (KM12 colon): > 100 µM | TGI (LOX IMVI melanoma): > 100 µM | TGI (M14 melanoma): > 100 µM | TGI (MALME-3M melanoma): > 100 µM | TGI (MCF7 breast): > 100 µM | TGI (MDA-MB-231 breast): > 100 µM | TGI (MDA-MB-435): > 100 µM | TGI (MDA-N): > 100 µM | TGI (MOLT-4 leukemia): 94.7 µM | TGI (NCI-H226 lung): > 100 µM | TGI (NCI-H23 lung): > 100 µM | TGI (NCI-H460 lung): > 100 µM | TGI (NCI/ADR-RES ovarian): > 100 µM | TGI (OVCAR-3 ovarian): > 100 µM | TGI (OVCAR-5 ovarian): 86.6 µM | TGI (OVCAR-8 ovarian): 32.3 µM | TGI (PC-3 prostate): > 100 µM | TGI (RPMI-8226 leukemia): 61.1 µM | TGI (RXF 393 renal): > 100 µM | TGI (SF-268 CNS): > 100 µM | TGI (SF-295 CNS): > 100 µM | TGI (SF-539 CNS): > 100 µM | TGI (SK-MEL-28 melanoma): > 100 µM | TGI (SK-MEL-5 melanoma): > 100 µM | TGI (SK-OV-3 ovarian): > 100 µM | TGI (SN12C renal): 70 µM | TGI (SNB-19 CNS): > 100 µM | TGI (SNB-75 CNS): > 100 µM | TGI (SR leukemia): 42.1 µM | TGI (SW-620 colon): > 100 µM | TGI (T-47D breast): 60 µM | TGI (TK-10 renal): > 100 µM | TGI (U251 CNS): > 100 µM | TGI (UACC-257 melanoma): > 100 µM | TGI (UACC-62 melanoma): > 100 µM

COc1ccc(-c2nc(-c3nc4ccc(Cl)cc4[nH]3)c3ccccn23)cc1
GI50 (786-0 renal): 1.6 µM | TGI (786-0 renal): 3.22 µM | GI50 (A498 renal): 5.61 µM | TGI (A498 renal): 29.2 µM | GI50 (A549 NSCLC): 1.82 µM | TGI (A549 NSCLC): 4.27 µM | GI50 (ACHN renal): 1.86 µM | TGI (ACHN renal): 3.75 µM | GI50 (BT-549 breast): 2.74 µM | TGI (BT-549 breast): 6.63 µM | GI50 (CAKI-1 renal): 2.09 µM | TGI (CAKI-1 renal): 5.03 µM | GI50 (CCRF-CEM leukemia): 27.3 µM | TGI (CCRF-CEM leukemia): > 100 µM | GI50 (COLO 205 colon): 3.61 µM | TGI (COLO 205 colon): 13.3 µM | GI50 (DU-145 prostate): 3.27 µM | TGI (DU-145 prostate): 11.1 µM | GI50 (HCC-2998 colon): 18.6 µM | TGI (HCC-2998 colon): > 100 µM | GI50 (HCT-116 colon): 2.41 µM | TGI (HCT-116 colon): 5.5 µM | GI50 (HCT-15 colon): 3.89 µM | TGI (HCT-15 colon): 64.3 µM | GI50 (HL-60(TB) leukemia): 49.8 µM | TGI (HL-60(TB) leukemia): > 100 µM | GI50 (HOP-62 NSCLC): 1.96 µM | TGI (HOP-62 NSCLC): 3.76 µM | GI50 (HOP-92 NSCLC): 2.19 µM | TGI (HOP-92 NSCLC): 6.09 µM | GI50 (HS 578T breast): 2.76 µM | TGI (HS 578T breast): 8.06 µM | GI50 (HT29 colon): 3.66 µM | TGI (HT29 colon): 14.2 µM | GI50 (IGROV1 ovarian): 4.95 µM | TGI (IGROV1 ovarian): 22.9 µM | GI50 (K-562 leukemia): 5.4 µM | TGI (K-562 leukemia): 80.1 µM | GI50 (KM12 colon): 7.68 µM | TGI (KM12 colon): > 100 µM | GI50 (LOX IMVI melanoma): 2.85 µM | TGI (LOX IMVI melanoma): 6.66 µM | GI50 (M14 melanoma): 4.24 µM | TGI (M14 melanoma): 18.4 µM | GI50 (MALME-3M melanoma): 2.35 µM | TGI (MALME-3M melanoma): 5.57 µM | GI50 (MCF7 breast): 3.15 µM | TGI (MCF7 breast): 16 µM | GI50 (MDA-MB-231 breast): 2.77 µM | TGI (MDA-MB-231 breast): 7.75 µM | GI50 (MDA-MB-435): 2.3 µM | TGI (MDA-MB-435): 7.64 µM | GI50 (MOLT-4 leukemia): > 100 µM | TGI (MOLT-4 leukemia): > 100 µM | GI50 (NCI-H226 lung): 1.94 µM | TGI (NCI-H226 lung): 4.46 µM | GI50 (NCI-H23 lung): 7.52 µM | TGI (NCI-H23 lung): 45.7 µM | GI50 (NCI-H460 lung): 2.23 µM | TGI (NCI-H460 lung): 5.29 µM | GI50 (NCI-H522 lung): 4.24 µM | TGI (NCI-H522 lung): 18.4 µM | GI50 (NCI/ADR-RES ovarian): 2.78 µM | TGI (NCI/ADR-RES ovarian): 9.2 µM | GI50 (OVCAR-3 ovarian): 2.61 µM | TGI (OVCAR-3 ovarian): 6.69 µM | GI50 (OVCAR-4 ovarian): 1.89 µM | TGI (OVCAR-4 ovarian): 4.74 µM | GI50 (OVCAR-5 ovarian): 7.32 µM | TGI (OVCAR-5 ovarian): 29.3 µM | GI50 (OVCAR-8 ovarian): 2.4 µM | TGI (OVCAR-8 ovarian): 6.69 µM | GI50 (PC-3 prostate): 2.13 µM | TGI (PC-3 prostate): 5.63 µM | GI50 (RPMI-8226 leukemia): 3.55 µM | TGI (RPMI-8226 leukemia): 58.3 µM | GI50 (RXF 393 renal): 1.94 µM | TGI (RXF 393 renal): 3.85 µM | GI50 (SF-268 CNS): 2.93 µM | TGI (SF-268 CNS): 9.07 µM | GI50 (SF-539 CNS): 1.76 µM | TGI (SF-539 CNS): 3.61 µM | GI50 (SK-MEL-2 melanoma): 2.71 µM | TGI (SK-MEL-2 melanoma): 8.76 µM | GI50 (SK-MEL-28 melanoma): 2.14 µM | TGI (SK-MEL-28 melanoma): 5.34 µM | GI50 (SK-MEL-5 melanoma): 4.27 µM | TGI (SK-MEL-5 melanoma): 27.8 µM | GI50 (SK-OV-3 ovarian): 2.24 µM | TGI (SK-OV-3 ovarian): 4.99 µM | GI50 (SN12C renal): 3.75 µM | TGI (SN12C renal): 17.8 µM | GI50 (SNB-19 CNS): 3.6 µM | TGI (SNB-19 CNS): 20.7 µM | GI50 (SNB-75 CNS): 1.87 µM | TGI (SNB-75 CNS): 3.94 µM | GI50 (SR leukemia): 12.6 µM | TGI (SR leukemia): > 100 µM | GI50 (SW-620 colon): 4.07 µM | TGI (SW-620 colon): 22.5 µM | GI50 (T-47D breast): 3.66 µM | TGI (T-47D breast): 20.2 µM | GI50 (TK-10 renal): 2.01 µM | TGI (TK-10 renal): 5.11 µM | GI50 (U251 CNS): 3.16 µM | TGI (U251 CNS): 11.3 µM | GI50 (UACC-257 melanoma): 2.63 µM | TGI (UACC-257 melanoma): 8.5 µM | GI50 (UACC-62 melanoma): 4.89 µM | TGI (UACC-62 melanoma): 20.9 µM | GI50 (UO-31 renal): 1.74 µM | TGI (UO-31 renal): 4.11 µM
